{"source": "patent US9034398B2", "about": "“Traditional Chinese drug comprising Danshen extracts and Sanqi extracts and use thereof” (TASLY Pharmaceutical Group Co., LTD., priority 2009, dated 2015)", "test_system": "rat myocardial I/R model", "test": "Myocardial infarction area by TTC staining", "format": "in vivo", "conditions": "for infarction region on TTC-stained heart slices, in contrast to I/R group / inhibition of the increase of the myocardial infarction area percentage caused by I/R: 5 mg/kg BW/h intravenous drip, 60 min after reperfusion, FIG. 6A", "procedure": "The rats were anesthetized by intramuscularly injecting 20 wt % urethane (1.25 g/kg) and fixed in the supine position. Neck skin was incised and anterior cervical muscles were separated to expose the trachea. Tracheal intubation was performed. Another end of the intubation was attached to a Small Animal Ventilator (ALC-V8, Shanghai Aoteshai Biology Science and Technology Limited Company, Shanghai, China) so as to carry out pressure breathing under the following conditions: a respiratory ratio of 1:1, a respiratory frequency of 75 times/min and a tidal volume of 12 mL/kg. The rectal temperature, measured with YSI REF 401 (Yellow Spring, Ohio, USA), was maintained at 37 37.5° C. by using a thermal blanket. The chest was sterilized and opened at the intercostal space between 2nd 4th ribs near the left and right sternal border to expose the heart. The 3⁄8 curved needle threaded with 3-0 suture was used to pass through the site at 1 2 mm below the juncture of the pulmonary artery cone and the left atrial appendage. The suture was ligated. A polyethylene tubule was placed between the silk suture and myocardial tissue, the silk suture was […] to cause ischemia. Ligature was released 30 min later to establish an I/R model. Danshensu+I/R group (DLA+I/R group): a Danshensu aqueous solution (in normal saline, 1.25 mg/ml) was administrated at a dosage of 5 mg/kg BW/h by intravenous drip 20 min before the experiment and continued until the end of the entire experiment. Notoginsenoside R1+I/R group (R1+I/R group): a Notoginsenoside R1 aqueous solution (in normal saline, 1.25 mg/ml) was administrated at a dosage of 5 mg/kg BW/h by intravenous drip 20 min before the experiment and continued until the end of the entire experiment. Danshensu:R1(4:1)+I/R group (DR(4:1)+I/R group): an aqueous solution of Danshensu and Notoginsenoside R1 at a weight ratio of 4:1, dissolved in normal saline (1.25 mg/ml, namely, in the solution, the concentration of Danshensu is 1 mg/ml and the concentration of Notoginsenoside R1 is 0.25 mg/ml), was administrated at a dosage of 5 mg/kg BW/h (namely, in the total dosage, the dosage of Danshensu is 4 mg/kg BW/h and the dosage of Notoginsenoside R1 is 1 mg/kg BW/h) by intravenous drip 20 min before the experiment and continued until the end of the entire experiment. Danshensu:R1 (1:1)+I/R group (DR(1:1)+IR group): an aqueous solution of Danshensu and Notoginsenoside R1 at a weight ratio of 1:1, dissolved in normal saline (1.25 mg/ml, namely, in the solution, the concentration of Danshensu is 0.625 mg/ml and the concentration of Notoginsenoside R1 is 0.625 mg/ml), was administrated at a dosage of 5 mg/kg BW/h (namely, in the total dosage, the dosage of Danshensu is 2.5 mg/kg BW/h and the dosage of Notoginsenoside R1 is 2.5 mg/kg BW/h) by intravenous drip 20 min before the experiment and continued until the end of the entire experiment. Danshensu:R1 (0.25:1)+I/R group (DR(0.25:1)+IR group): an aqueous solution of Danshensu and Notoginsenoside R1 at a weight ratio of 0.25:1, dissolved in normal saline (1.25 mg/ml, namely, in the solution, the concentration of Danshensu is 0.25 mg/ml and the concentration of Notoginsenoside R1 is 1.0 mg/ml), was administrated at a dosage of 5 mg/kg BW/h (namely, in the total dosage, the dosage of Danshensu is 1 mg/kg BW/h and the dosage of Notoginsenoside R1 is 4 mg/kg BW/h) by intravenous drip 20 min before the experiment and continued until the end of the entire experiment. […]", "data": [{"smiles": "O=C(O)C(O)Cc1ccc(O)c(O)c1", "note": "(centres unmarked) [Danshensu, (3,4-dihydroxyphenyl)lactic acid]", "values": [{"measurement": "infarction region on TTC-stained heart slices, in contrast to I/R group", "result": "decreased obviously"}, {"measurement": "inhibition of the increase of the myocardial infarction area percentage caused by I/R", "result": "significantly suppress"}, {"measurement": "reduction of the percentage of the myocardial infarction area after I/R (summary)", "setting": "rats, summary statement of the description", "result": "can reduce"}]}, {"smiles": "CC(C)=CCC[C@](C)(O[C@@H]1O[C@H](CO)[C@@H](O)[C@H](O)[C@H]1O)[C@H]1CC[C@]2(C)[C@@H]1[C@H](O)C[C@@H]1[C@@]3(C)CC[C@H](O)C(C)(C)[C@@H]3[C@@H](O[C@@H]3O[C@H](CO)[C@@H](O)[C@H](O)[C@H]3O[C@@H]3OC[C@@H](O)[C@H](O)[C@H]3O)C[C@]12C", "note": "[Notoginsenoside R1]", "values": [{"measurement": "infarction region on TTC-stained heart slices, in contrast to I/R group", "result": "decreased slightly"}, {"measurement": "inhibition of the increase of the myocardial infarction area percentage caused by I/R", "result": "has not significantly inhibited"}]}]}
